Experimental data from patent publication US11254668B2, “Pyrazolo[1,5-A]pyrazin-4-yl and related derivatives” (Pfizer Inc., priority 2017, dated 2022).
Like-named read-outs stand apart in the source and are kept apart here.

Tests used:
Format in all cases: biochemical
JAK3 = JAK3 (Homo sapiens (Human), UniProt P52333); test: JAK Caliper Enzyme Assay at 1 mM ATP, JAK3
In short: (§1)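 IC50 (nM) derived from percent conversion of fluorescently labelled peptide, measured by Caliper LabChip mobility-shift separation after EDTA stop. Each JAK family kinase domain (human, recombinant) run at 1 mM ATP and room temperature, conditions set to 20-30% product; DMSO wells define uninhibited baseline.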

TYK2 = TYK2 (Homo sapiens (Human), UniProt P29597); test: JAK Caliper Enzyme Assay at 1 mM ATP, TYK2
TYK2, sequence (P29597 897-1176): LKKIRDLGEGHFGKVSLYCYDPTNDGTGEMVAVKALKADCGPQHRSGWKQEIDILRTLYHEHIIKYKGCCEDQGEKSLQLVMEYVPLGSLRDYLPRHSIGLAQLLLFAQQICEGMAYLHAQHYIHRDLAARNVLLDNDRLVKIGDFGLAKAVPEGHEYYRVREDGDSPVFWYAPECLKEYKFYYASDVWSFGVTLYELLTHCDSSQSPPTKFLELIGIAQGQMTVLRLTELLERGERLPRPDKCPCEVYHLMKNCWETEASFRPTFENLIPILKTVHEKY
In short: (§2)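 Read-out is Caliper LabChip mobility-shift separation of phosphorylated from unphosphorylated fluorescent peptide after EDTA termination. Each JAK kinase domain (human, recombinant) runs at 1 mM ATP at room temperature, adjusted for 20–30% turnover. Inhibition is normalized to DMSO and positive-control wells and plotted against concentration.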

JAK2 = JAK2 (Homo sapiens (Human), UniProt O60674); test: JAK Caliper Enzyme Assay at 1 mM ATP, JAK2
JAK2, sequence (O60674 849-1124): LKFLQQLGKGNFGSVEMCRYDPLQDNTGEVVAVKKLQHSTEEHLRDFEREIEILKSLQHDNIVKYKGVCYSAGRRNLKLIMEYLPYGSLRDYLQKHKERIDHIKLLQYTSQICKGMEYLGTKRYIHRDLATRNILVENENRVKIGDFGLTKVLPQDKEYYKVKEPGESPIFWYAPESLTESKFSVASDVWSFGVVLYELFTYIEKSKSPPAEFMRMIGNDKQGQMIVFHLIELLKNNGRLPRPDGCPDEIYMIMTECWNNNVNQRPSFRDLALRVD
In short: as §2

JAK1 = JAK1 (Homo sapiens (Human), UniProt P23458); test: JAK Caliper Enzyme Assay at 1 mM ATP, JAK1
JAK1, sequence (P23458 875-1153): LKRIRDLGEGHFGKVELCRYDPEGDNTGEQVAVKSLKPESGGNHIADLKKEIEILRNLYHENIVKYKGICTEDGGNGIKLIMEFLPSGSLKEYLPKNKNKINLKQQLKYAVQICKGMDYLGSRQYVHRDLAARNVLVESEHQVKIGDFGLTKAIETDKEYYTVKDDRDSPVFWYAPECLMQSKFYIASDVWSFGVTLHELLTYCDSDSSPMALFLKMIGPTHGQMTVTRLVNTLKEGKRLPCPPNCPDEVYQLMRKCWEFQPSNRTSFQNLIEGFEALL
In short: as §1

JAK3, sequence (P52333 822-1111): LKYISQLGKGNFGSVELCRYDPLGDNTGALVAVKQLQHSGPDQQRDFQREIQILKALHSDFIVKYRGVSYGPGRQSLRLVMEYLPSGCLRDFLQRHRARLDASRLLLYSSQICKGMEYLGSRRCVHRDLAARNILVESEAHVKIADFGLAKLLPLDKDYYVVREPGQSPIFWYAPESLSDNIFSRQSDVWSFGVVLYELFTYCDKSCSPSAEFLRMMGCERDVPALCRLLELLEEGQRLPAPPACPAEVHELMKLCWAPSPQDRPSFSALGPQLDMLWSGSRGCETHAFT

Compound	IC50 (JAK3; JAK Caliper enzyme assay)	IC50 (TYK2; JAK Caliper enzyme assay)	IC50 (JAK2; JAK Caliper enzyme assay)	IC50 (JAK1; JAK Caliper enzyme assay)	IC50 (JAK3)	IC50 (TYK2)	IC50 (JAK2)	IC50 (JAK1)
CCn1cc(-c2cc(-c3cnn(C4(CC#N)CN(S(C)(=O)=O)C4)n3)c3cccnc3c2)ccc1=O [Example 413, [3-{4-[7-(1-ethyl-6-oxo-1,6-dihydropyridin-3-yl)quinolin-5-yl]-2H-1,2,3-triazol-2-yl}-1-(methylsulfonyl)azetidin-3-yl]acetonitrile]	> 10000 nM	90 nM	682 nM	4020 nM	–	–	–	–
CO[C@H]1C[C@@](CC#N)(n2ccc(-c3nc(-c4cnn(C)c4)cc4ncccc34)n2)C1 [Example 110, (cis-3-methoxy-1-{3-[7-(1-methyl-1H-pyrazol-4-yl)-1,6-naphthyridin-5-yl]-1H-pyrazol-1-yl}cyclobutyl)acetonitrile]	–	–	–	–	> 10000 nM	61 nM	558 nM	4110 nM
Cn1ccc(-c2cc(-c3cnn(C4(CC#N)CN(S(C)(=O)=O)C4)n3)c3cccnc3c2)n1 [Example 311, [3-{4-[7-(1-methyl-1H-pyrazol-3-yl)quinolin-5-yl]-2H-1,2,3-triazol-2-yl}-1-(methylsulfonyl)azetidin-3-yl]acetonitrile]	–	–	–	–	> 10000 nM	25 nM	287 nM	2260 nM
Cc1cc(-c2nc(-c3cc(N)n(C)n3)cc3ncccc23)nn1[C@]1(CC#N)C[C@@H](C#N)C1 [Example 270, trans-3-{3-[7-(5-amino-1-methyl-1H-pyrazol-3-yl)-1,6-naphthyridin-5-yl]-5-methyl-1H-pyrazol-1-yl}-3-(cyanomethyl)cyclobutanecarbonitrile]	–	–	–	–	> 10000 nM	46 nM	574 nM	6900 nM
Cn1cc(-c2cc3ncccc3c(-c3ccn(C4(CC#N)CN(CC(F)(F)F)C4)n3)n2)ccc1=O [Example 249, [3-{3-[7-(1-methyl-6-oxo-1,6-dihydropyridin-3-yl)-1,6-naphthyridin-5-yl]-1H-pyrazol-1-yl}-1-(2,2,2-trifluoroethyl)azetidin-3-yl]acetonitrile]	–	–	–	–	> 10000 nM	178 nM	1150 nM	1080 nM
N#CC[C@]1(n2ncc(-c3cc(-c4cnc(N)cn4)cc4ncccc34)n2)C[C@@H](C#N)C1 [Example 398, cis-3-{4-[7-(5-aminopyrazin-2-yl)quinolin-5-yl]-2H-1,2,3-triazol-2-yl}-3-(cyanomethyl)cyclobutanecarbonitrile]	> 10000 nM	204 nM	1040 nM	1900 nM	–	–	–	–
Cn1cc(-c2cc3ncccc3c(-c3cc(C4(CC#N)CN(CC#N)C4)no3)n2)cn1 [Example 282]	–	–	–	–	> 10000 nM	60 nM	45 nM	219 nM
N#CCC1(n2ccc(-c3nc(Oc4cccc(N)n4)cc4ncccc34)n2)CC(C#N)C1 (stereo not drawn) [Example 266, trans-3-(3-{7-[(6-aminopyridin-2-yl)oxy]-1,6-naphthyridin-5-yl}-1H-pyrazol-1-yl)-3-(cyanomethyl)cyclobutanecarbonitrile]	–	–	–	–	> 10000 nM	1910 nM	3320 nM	> 10000 nM
CCN1CC(CC#N)(n2ccc(-c3nc(N4CCCC4)cc4ncccc34)n2)C1 [Example 265, (1-ethyl-3-{3-[7-(pyrrolidin-1-yl)-1,6-naphthyridin-5-yl]-1H-pyrazol-1-yl}azetidin-3-yl)acetonitrile]	–	–	–	–	> 10000 nM	4820 nM	> 10000 nM	> 10000 nM
CCOC(=O)Nc1cncc(-c2cc3ncccc3c(-c3ccn(C4(CC#N)CN(S(C)(=O)=O)C4)n3)n2)c1 [Example 202, ethyl [5-(5-{1-[3-(cyanomethyl)-1-(methylsulfonyl)azetidin-3-yl]-1H-pyrazol-3-yl}-1,6-naphthyridin-7-yl)pyridin-3-yl]carbamate]	–	–	–	–	> 10000 nM	135 nM	> 10000 nM	> 10000 nM
N#CC[C@]1(n2ncc(-c3cc(-c4cccc(N)n4)cc4ncccc34)n2)C[C@H](C#N)C1 [Example 357, trans-3-{4-[7-(6-aminopyridin-2-yl)quinolin-5-yl]-2H-1,2,3-triazol-2-yl}-3-(cyanomethyl)cyclobutanecarbonitrile]	–	–	–	–	> 10000 nM	99 nM	670 nM	2580 nM
N#CC[C@]1(n2ccc(-c3nc(-c4ccnc(C(N)=O)n4)cc4ncccc34)n2)C[C@H](C#N)C1 [Example 243, 4-(5-{1-[trans-3-cyano-1-(cyanomethyl)cyclobutyl]-1H-pyrazol-3-yl}-1,6-naphthyridin-7-yl)pyrimidine-2-carboxamide]	–	–	–	–	> 10000 nM	48 nM	726 nM	2220 nM
N#CC[C@]1(n2ccc(-c3nc(-c4cn[nH]c4CO)cc4ncccc34)n2)C[C@H](C#N)C1 [Example 91, trans-3-(cyanomethyl)-3-(3-{7-[5-(hydroxymethyl)-1H-pyrazol-4-yl]-1,6-naphthyridin-5-yl}-1H-pyrazol-1-yl)cyclobutanecarbonitrile]	–	–	–	–	> 10000 nM	34 nM	160 nM	562 nM
CCS(=O)(=O)N1CC(CC#N)(n2ccc(-c3nc(-c4cnn(C)c4)cc4ncccc34)n2)C1 [Example 105, [1-(ethylsulfonyl)-3-{3-[7-(1-methyl-1H-pyrazol-4-yl)-1,6-naphthyridin-5-yl]-1H-pyrazol-1-yl}azetidin-3-yl]acetonitrile]	–	–	–	–	8090 nM	39 nM	174 nM	1350 nM
CS(=O)(=O)N1CC(CC#N)(n2cc(-c3cc(-c4cn[nH]c4)cc4ncccc34)cn2)C1 [Example 289, [1-(methylsulfonyl)-3-{4-[7-(1H-pyrazol-4-yl)quinolin-5-yl]-1H-pyrazol-1-yl}azetidin-3-yl]acetonitrile]	–	–	–	–	> 10000 nM	197 nM	525 nM	1530 nM
Cn1nc(CO)cc1-c1cc2ncccc2c(-c2ccn([C@]3(CC#N)C[C@@H](C#N)C3)n2)n1 [Example 60, trans-3-(cyanomethyl)-3-(3-{7-[3-(hydroxymethyl)-1-methyl-1H-pyrazol-5-yl]-1,6-naphthyridin-5-yl}-1H-pyrazol-1-yl)cyclobutanecarbonitrile]	–	–	–	–	> 10000 nM	190 nM	915 nM	3850 nM
Cn1nc(-c2cc3ncccc3c(-c3ccn([C@]4(CC#N)C[C@@](C)(C#N)C4)n3)n2)cc1N [Example 68, trans-3-{3-[7-(5-amino-1-methyl-1H-pyrazol-3-yl)-1,6-naphthyridin-5-yl]-1H-pyrazol-1-yl}-3-(cyanomethyl)-1-methylcyclobutanecarbonitrile]	–	–	–	–	> 10000 nM	1590 nM	4330 nM	> 10000 nM
CO[C@H]1C[C@](CC#N)(n2ccc(-c3nc(-c4cc(N)[nH]n4)cc4ncccc34)n2)C1 [Example 53, (trans-1-{3-[7-(5-amino-1H-pyrazol-3-yl)-1,6-naphthyridin-5-yl]-1H-pyrazol-1-yl}-3-methoxycyclobutyl)acetonitrile]	–	–	–	–	> 10000 nM	26 nM	396 nM	654 nM
N#CC[C@]1(n2ncc(-c3cc(-c4ccc(N)nn4)cc4ncccc34)n2)C[C@@H](C#N)C1 [Example 400, cis-3-{4-[7-(6-aminopyridazin-3-yl)quinolin-5-yl]-2H-1,2,3-triazol-2-yl}-3-(cyanomethyl)cyclobutanecarbonitrile]	9130 nM	16 nM	67 nM	748 nM	–	–	–	–
N#CC[C@]1(n2ncc(-c3cc(-c4cn5ccnc5c(N)n4)cc4ncccc34)n2)C[C@@H](C#N)C1 [Example 423, cis-3-{4-[7-(8-aminoimidazo[1,2-a]pyrazin-6-yl)quinolin-5-yl]-2H-1,2,3-triazol-2-yl}-3-(cyanomethyl)cyclobutanecarbonitrile]	> 10000 nM	76 nM	183 nM	2250 nM	–	–	–	–
N#CC[C@]1(n2ccc(-c3nc(-c4cn[nH]c4CO)cc4ncccc34)n2)C[C@@H](C#N)C1 [Example 92, cis-3-(cyanomethyl)-3-(3-{7-[5-(hydroxymethyl)-1H-pyrazol-4-yl]-1,6-naphthyridin-5-yl}-1H-pyrazol-1-yl)cyclobutanecarbonitrile]	–	–	–	–	1850 nM	9 nM	22 nM	63 nM
CCN1CC(CC#N)(n2ccc(-c3nc(C4=CCOCC4)cc4ncccc34)n2)C1 [Example 263, (3-{3-[7-(3,6-dihydro-2H-pyran-4-yl)-1,6-naphthyridin-5-yl]-1H-pyrazol-1-yl}-1-ethylazetidin-3-yl)acetonitrile]	–	–	–	–	> 10000 nM	1390 nM	9570 nM	> 10000 nM
Cn1cc(-c2cc3ncccc3c(-c3ccn(C4(CC#N)CN(CC(F)(F)F)C4)n3)n2)cn1 [Example 99, [3-{3-[7-(1-methyl-1H-pyrazol-4-yl)-1,6-naphthyridin-5-yl]-1H-pyrazol-1-yl}-1-(2,2,2-trifluoroethyl)azetidin-3-yl]acetonitrile]	–	–	–	–	> 10000 nM	16 nM	133 nM	563 nM
Cn1cc(-c2cc(-c3cnn(C4(CC#N)CN(CC(F)(F)F)C4)c3)n3ccnc3c2)cn1 [Example 457, [3-{4-[7-(1-methyl-1H-pyrazol-4-yl)imidazo[1,2-a]pyridin-5-yl]-1H-pyrazol-1-yl}-1-(2,2,2-trifluoroethyl)azetidin-3-yl]acetonitrile]	> 10000 nM	252 nM	3940 nM	> 10000 nM	–	–	–	–
